Data published in patent US12583858B2 (Genentech, Inc., priority 2015, dated 2026).

Biological target: T1, TDO2 (Homo sapiens, UniProt P48775)
T1 construct: decreased levels of NFK in SW48 cells (high TDO expressing cells)
Experiment: TDO2 cell assay (NFK GreenScreen, SW48 cells)
Format: cell-based
Details: SW48 cells (high TDO expressing), 200 uM tryptophan, 24 hours; Table 3; read-out: TDO2 Cell Fluor EC50
Description: The NFK GreenScreen™ (NTRC, Netherlands) uses a specific chemical probe that binds to N-Formylkynurenine (NFK), a product of tryptophan catabolism facilitated by IDO or TDO and causes fluorescence at 510 nm when excited at 410 nm. […] The assay is multiplexed with Cell Titer-Glo® (Promega) to determine if compounds are cytotoxic. […] Cells are counted on a Vi-Cell (Beckman Coulter). SW48 cells are diluted to 1×10^6 cells/ml in assay media. A172 cells are diluted to 0.24×10^6 cells/ml in assay media. […] 5 ul of assay media containing 1.2 mM tryptophan are added to the SW48 cells for a final concentration of 200 uM tryptophan in each well. 5 ul of assay media containing 600 uM tryptophan and 600 ng/ml IFNγ are added to the A172 cells for a final concentration of 100 uM tryptophan and 100 ng/ml IFNγ in each well. The final DMSO concentration is 0.5%. Cell plates are placed at room temperature in a closed TC hood with the blower off to allow cells to settle for approximately 30 min. Plates are then moved to an incubator set at 37° C., 5% CO2 for 24 hours. After the 24 hour compound incubation, 8 ul of NFK green reagent is added to each well with a Multidrop™ Combi dispenser (Thermo Scientific). Plates are sealed and incubated at 37° C., 5% CO2 for 5 hours, then read on a PHERAstar® (BMG labtech). Data are analyzed by normalizing to DMSO and high inhibitor controls. After the plates have been read for NFK green, 25 ul of Cell Titer-Glo® (Promega) are added to each well, incubated for 15 minutes at room temperature, and read on the Envision (Perkin Elmer). Cell Titer-Glo data are analyzed by normalizing to the DMSO controls. Four-parameter curve fitting is used and EC50 data are reported.

T1 sequence (P48775 whole entry): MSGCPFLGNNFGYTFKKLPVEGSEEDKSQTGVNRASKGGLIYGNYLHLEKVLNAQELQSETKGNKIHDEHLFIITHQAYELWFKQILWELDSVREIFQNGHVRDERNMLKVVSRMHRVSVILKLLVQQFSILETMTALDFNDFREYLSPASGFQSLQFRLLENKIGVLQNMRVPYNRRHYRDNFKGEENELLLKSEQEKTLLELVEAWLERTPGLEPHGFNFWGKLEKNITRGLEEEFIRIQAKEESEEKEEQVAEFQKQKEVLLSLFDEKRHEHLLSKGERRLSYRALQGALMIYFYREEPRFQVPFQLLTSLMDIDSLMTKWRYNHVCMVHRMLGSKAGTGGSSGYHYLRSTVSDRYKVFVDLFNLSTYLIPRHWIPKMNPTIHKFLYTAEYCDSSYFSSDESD

| SMILES | EC50 |
| --- | --- |
| OC1c2nonc2CCC1C1c2ccccc2-c2cncn21 (single isomer, unassigned) [Example 163b] | 60 nM |
| OC1c2nonc2CCC1C1c2ccccc2-c2cncn21 (single isomer, unassigned) [Example 163c] | 15000 nM |
| OC1c2nonc2CCC1C1c2ccccc2-c2cncn21 (single isomer, unassigned) [Example 163d] | 54 nM |
| OC1c2nonc2CCC1C1c2ccccc2-c2cncn21 (single isomer, unassigned) [Example 163e] | 6100 nM |
| OC1c2nonc2CCC1C1c2ccccc2-c2cncn21 (single isomer, unassigned) [Example 163f] | > 25000 nM |
| OC1c2nonc2CCC1C1c2ccccc2-c2cncn21 (single isomer, unassigned) [Example 163g] | 440 nM |
| OC1c2nonc2CCC1C1c2ccccc2-c2cncn21 (single isomer, unassigned) [Example 163h] | 930 nM |
| CC1(C)CCCCC1(O)C1c2ccccc2-c2cncn21 (single isomer, unassigned) [Example 164a] | 40 nM |
| CC1(C)CCCCC1(O)C1c2ccccc2-c2cncn21 (single isomer, unassigned) [Example 164b] | 7500 nM |
| NC(=O)C1(C(O)C2c3ccccc3-c3cncn32)CC1 (single isomer, unassigned) [Example 165c] | 11000 nM |
| Cc1cc2n(n1)CCC(C1c3ccccc3-c3cncn31)C2O (single isomer, unassigned) [Example 166a] | > 25000 nM |
| Cc1cc2n(n1)CCC(C1c3ccccc3-c3cncn31)C2O (single isomer, unassigned) [Example 166b] | 270 nM |
| Cc1nc2c(o1)CCC(C1c3ccccc3-c3cncn31)C2O (single isomer, unassigned) [Example 168a] | 140 nM |
| OC1c2cccnc2CCC1C1c2ccc(F)cc2-c2cncn21 (single isomer, unassigned) [Example 169a] | 210 nM |
| O[C@H]1c2cccnc2CC[C@@H]1[C@@H]1c2ccc(F)cc2-c2cncn21 (single isomer, unassigned) [Example 169b] | 16000 nM |
| OC1CCOCC1C1c2cccc(F)c2-c2cncn21 (single isomer, unassigned) [Example 170a] | > 25000 nM |
| OC1CCOCC1C1c2cccc(F)c2-c2cncn21 (single isomer, unassigned) [Example 170b] | 2100 nM |
| OC1CCOCC1C1c2cccc(F)c2-c2cncn21 (single isomer, unassigned) [Example 170c] | > 25000 nM |
| OC1CCOCC1C1c2cccc(F)c2-c2cncn21 (single isomer, unassigned) [Example 170d] | 13000 nM |
| Cc1ccc2c(c1)-c1cncn1C2C1COCC1O (single isomer, unassigned) [Example 171a] | 999 nM |
| Cc1ccc2c(c1)-c1cncn1C2C1COCC1O (single isomer, unassigned) [Example 171b] | > 25000 nM |

| SMILES | EC50 |
| --- | --- |
| Cc1ccc2c(c1)-c1cncn1C2C1COCC1O (single isomer, unassigned) [Example 171c] | 5800 nM |
| Cc1ccc2c(c1)-c1cncn1C2C1COCC1O (single isomer, unassigned) [Example 171d] | 17700 nM |
| NC(=O)c1cc2n(n1)CCC(C1c3ccccc3-c3cncn31)C2O (single isomer, unassigned) [Example 172a] | > 25000 nM |
| NC(=O)c1cc2n(n1)CCC(C1c3ccccc3-c3cncn31)C2O (single isomer, unassigned) [Example 172b] | 1100 nM |
| OC1c2cc(C(F)F)nn2CCC1C1c2ccccc2-c2cncn21 (single isomer, unassigned) [Example 173a] | > 25000 nM |
| OC1c2cc(C(F)F)nn2CCC1C1c2ccccc2-c2cncn21 (single isomer, unassigned) [Example 173b] | 430 nM |
| N#Cc1cc2n(n1)CCC(C1c3ccccc3-c3cncn31)C2O (single isomer, unassigned) [Example 174a] | > 25000 nM |
| N#Cc1cc2n(n1)CCC(C1c3ccccc3-c3cncn31)C2O (single isomer, unassigned) [Example 174b] | 150 nM |
| Cc1nc2c(o1)CCC(C1c3ccccc3-c3cncn31)C2O (single isomer, unassigned) [Example 178a] | 120 nM |
| Cc1nc2c(o1)CCC(C1c3ccccc3-c3cncn31)C2O (single isomer, unassigned) [Example 178b] | > 25000 nM |
| CS(=O)(=O)N1CCC2(CC1)CC(C1c3ccccc3-c3cncn31)C2O (single isomer, unassigned) [Example 179c] | > 25000 nM |
| CS(=O)(=O)N1CCC2(CC1)CC(C1c3ccccc3-c3cncn31)C2O (single isomer, unassigned) [Example 179d] | 540 nM |
| CS(=O)(=O)N1CCC2(CC1)CC(C1c3ccccc3-c3cncn31)C2O (single isomer, unassigned) [Example 179e] | 6800 nM |
| CS(=O)(=O)N1CCC2(CC1)CC(C1c3ccccc3-c3cncn31)C2O (single isomer, unassigned) [Example 179f] | 120 nM |
| CS(=O)(=O)N1CCC2(CC1)CC(C1c3ccccc3-c3cncn31)C2O (single isomer, unassigned) [Example 179g] | 790 nM |
| CS(=O)(=O)N1CCC2(CC1)CC(C1c3ccccc3-c3cncn31)C2O (single isomer, unassigned) [Example 179h] | 8600 nM |
| CS(=O)(=O)N1CCC2(CCC(C3c4ccccc4-c4cncn43)C2O)CC1 (single isomer, unassigned) [Example 180a] | 370 nM |
| CS(=O)(=O)N1CCC2(CCC(C3c4ccccc4-c4cncn43)C2O)CC1 (single isomer, unassigned) [Example 180b] | > 25000 nM |
| CS(=O)(=O)N1CCC2(CCC(C3c4ccccc4-c4cncn43)C2O)CC1 (single isomer, unassigned) [Example 180c] | 98 nM |
| CS(=O)(=O)N1CCC2(CCC(C3c4ccccc4-c4cncn43)C2O)CC1 (single isomer, unassigned) [Example 180d] | > 25000 nM |
| NS(=O)(=O)N1CCC2(CC1)CC(C1c3ccccc3-c3cncn31)C2O (single isomer, unassigned) [Example 181a] | 660 nM |

| SMILES | EC50 |
| --- | --- |
| NS(=O)(=O)N1CCC2(CC1)CC(C1c3ccccc3-c3cncn31)C2O (single isomer, unassigned) [Example 181b] | > 25000 nM |
| NS(=O)(=O)N1CCC2(CC1)CC(C1c3ccccc3-c3cncn31)C2O (single isomer, unassigned) [Example 181c] | > 25000 nM |
| NS(=O)(=O)N1CCC2(CC1)CC(C1c3ccccc3-c3cncn31)C2O (single isomer, unassigned) [Example 181d] | 3000 nM |
| NS(=O)(=O)N1CCC2(CC1)CC(C1c3ccccc3-c3cncn31)C2O (single isomer, unassigned) [Example 181e] | 12000 nM |
| NS(=O)(=O)N1CCC2(CC1)CC(C1c3ccccc3-c3cncn31)C2O (single isomer, unassigned) [Example 181f] | 200 nM |
| NS(=O)(=O)N1CCC2(CC1)CC(C1c3ccccc3-c3cncn31)C2O (single isomer, unassigned) [Example 181g] | 930 nM |
| NS(=O)(=O)N1CCC2(CC1)CC(C1c3ccccc3-c3cncn31)C2O (single isomer, unassigned) [Example 181h] | 11000 nM |
| NS(=O)(=O)N1CCC2(CCC(C3c4ccccc4-c4cncn43)C2O)CC1 (single isomer, unassigned) [Example 182a] | > 25000 nM |
| NS(=O)(=O)N1CCC2(CCC(C3c4ccccc4-c4cncn43)C2O)CC1 (single isomer, unassigned) [Example 182b] | 540 nM |
| NS(=O)(=O)N1CCC2(CCC(C3c4ccccc4-c4cncn43)C2O)CC1 (single isomer, unassigned) [Example 182c] | 4600 nM |
| NS(=O)(=O)N1CCC2(CCC(C3c4ccccc4-c4cncn43)C2O)CC1 (single isomer, unassigned) [Example 182d] | 92 nM |
| OC1c2cncn2CC[C@H]1[C@H]1c2ccccc2-c2cncn21 (stereo in doubt) [Example 07c, (7S,8R)-7-((S)-5H-imidazo[5,1-a]isoindol-5-yl)-5,6,7,8-tetrahydroimidazo[1,5-a]pyridin-8-ol] | 430 nM |
| OC1c2cncn2CC[C@@H]1[C@@H]1c2ccccc2-c2cncn21 (stereo in doubt) [Example 07d, (7R,8S)-7-((R)-5H-imidazo[5,1-a]isoindol-5-yl)-5,6,7,8-tetrahydroimidazo[1,5-a]pyridin-8-ol] | > 25000 nM |
| CCS(=O)(=O)N1CC[C@H]([C@H]2c3ccccc3-c3cncn32)[C@@H](O)C1 (stereo in doubt) [Example 16d, (3R,4R)-1-(ethylsulfonyl)-4-((S)-5H-imidazo[5,1-a]isoindol-5-yl)piperidin-3-ol] | > 25000 nM |
| NC(=O)c1ccc2c(c1)CC[C@H](C1c3ccccc3-c3cncn31)[C@H]2O (stereo in doubt) [Example 60c, (5R,6R)-5-hydroxy-6-((S)-5H-imidazo[5,1-a]isoindol-5-yl)-5,6,7,8-tetrahydronaphthalene-2-carboxamide] | 2400 nM |
| N#Cc1ccc2c(c1)[C@@H](O)[C@@H]([C@H]1c3ccccc3-c3cncn31)CC2 (stereo in doubt) [Example 113d, (7R,8S)-8-hydroxy-7-((S)-5H-imidazo[5,1-a]isoindol-5-yl)-5,6,7,8-tetrahydronaphthalene-2-carbonitrile] | 12000 nM |
| N#Cc1ccc2c(c1)[C@H](O)[C@H]([C@@H]1c3ccccc3-c3cncn31)CC2 (stereo in doubt) [Example 113e, (7S,8R)-8-hydroxy-7-((R)-5H-imidazo[5,1-a]isoindol-5-yl)-5,6,7,8-tetrahydronaphthalene-2-carbonitrile] | 1300 nM |
| OC1c2cccn2CC[C@H]1C1c2ccccc2-c2cncn21 (stereo in doubt) [Example 136f, (7S,8S)-7-((R)-5H-imidazo[5,1-a]isoindol-5-yl)-5,6,7,8-tetrahydroindolizin-8-ol] | 360 nM |
| O[C@@H]1CC[C@@H]1[C@@H]1c2ccccc2-c2cncn21 [Example 01a, (1R,2R)-2-((R)-5H-imidazo[5,1-a]isoindol-5-yl)cyclobutan-1-ol] | 14000 nM |
